# ChEMBL document CHEMBL1759880, “A facile, one-pot synthesis, characterization and antimicrobial activity of o-hydroxy anilide derivatives and 1-substituted-1,3-dicyclohexylurea analogs of long chain carboxylic acids” (2011)
# What was measured:
# Candida albicans [1] = assay: Antifungal activity against Candida albicans after 3 to 4 days by disc diffusion method; assay type: functional; also: test concentration or dose not given here
# Aspergillus fumigatus [2] = assay: Antifungal activity against Aspergillus fumigatus after 3 to 4 days by disc diffusion method; assay type: functional; also: test concentration or dose not given here
# Talaromyces marneffei [3] = assay: Antifungal activity against Penicillium marneffei after 3 to 4 days by disc diffusion method; assay type: functional
# [4] = tested on: Trichophyton mentagrophytes; assay: Antifungal activity against Trichophyton mentagrophytes after 3 to 4 days by disc diffusion method; assay type: functional; also: test concentration or dose not given here
# Candida albicans [5] = assay: Antifungal activity against Candida albicans after 48 hrs by broth dilution technique; assay type: functional
# Aspergillus fumigatus [6] = assay: Antifungal activity against Aspergillus fumigatus after 48 hrs by broth dilution technique; assay type: functional
# Talaromyces marneffei [7] = assay: Antifungal activity against Penicillium marneffei after 48 hrs by broth dilution technique; assay type: functional
# [8] = tested on: Trichophyton mentagrophytes; assay: Antifungal activity against Trichophyton mentagrophytes after 48 hrs by broth dilution technique; assay type: functional
# Staphylococcus aureus [9] = assay: Antibacterial activity against Staphylococcus aureus ATCC 25923 after 24 hrs by disc diffusion method; assay type: functional; also: test concentration or dose not given here
# Pseudomonas aeruginosa [10] = assay: Antibacterial activity against Pseudomonas aeruginosa ATCC 27853 after 24 hrs by disc diffusion method; also: test concentration or dose not given here
# Pseudomonas aeruginosa [11] = assay: Antibacterial activity against Pseudomonas aeruginosa ATCC 27853 after 24 hrs by broth dilution technique; details: ATCC-27853, 24 h
# Staphylococcus aureus [12] = assay: Antibacterial activity against Staphylococcus aureus ATCC 25923 after 24 hrs by broth dilution technique; assay type: functional; details: ATCC-25923, 24 h
# Escherichia coli [13] = assay: Antibacterial activity against Escherichia coli ATCC 25922 after 24 hrs by broth dilution technique; assay type: functional; details: ATCC-25922, 24 h
# Escherichia coli [14] = assay: Antibacterial activity against Escherichia coli ATCC 25922 after 24 hrs by disc diffusion method; assay type: functional; also: test concentration or dose not given here
# Klebsiella pneumoniae [15] = assay: Antibacterial activity against Klebsiella pneumoniae clinical isolate after 24 hrs by disc diffusion method; assay type: functional
# Streptococcus pyogenes [16] = assay: Antibacterial activity against Streptococcus pyogenes clinical isolate after 24 hrs by broth dilution technique; assay type: functional
# Klebsiella pneumoniae [17] = assay: Antibacterial activity against Klebsiella pneumoniae clinical isolate after 24 hrs by broth dilution technique; assay type: functional
# Streptococcus pyogenes [18] = assay: Antibacterial activity against Streptococcus pyogenes clinical isolate after 24 hrs by disc diffusion method; assay type: functional; also: test concentration or dose not given here
SMILES,diameter of the inhibition zone (DIZ) (Candida albicans [1]) [mm],diameter of the inhibition zone (DIZ) (Aspergillus fumigatus [2]) [mm],diameter of the inhibition zone (DIZ) (Talaromyces marneffei [3]) [mm],diameter of the inhibition zone (DIZ) [4] [mm],MFC (Candida albicans [5]) [µg/mL],MIC (Candida albicans [5]) [µg/mL],MFC (Aspergillus fumigatus [6]) [µg/mL],MIC (Aspergillus fumigatus [6]) [µg/mL],MFC (Talaromyces marneffei [7]) [µg/mL],MIC (Talaromyces marneffei [7]) [µg/mL],MFC [8] [µg/mL],MIC [8] [µg/mL],diameter of the inhibition zone (DIZ) (Staphylococcus aureus [9]) [mm],diameter of the inhibition zone (DIZ) (Pseudomonas aeruginosa [10]) [mm],MIC (Pseudomonas aeruginosa [11]) [µg/mL],MBC (Staphylococcus aureus [12]) [µg/mL],MIC (Staphylococcus aureus [12]) [µg/mL],MBC (Escherichia coli [13]) [µg/mL],MIC (Escherichia coli [13]) [µg/mL],diameter of the inhibition zone (DIZ) (Escherichia coli [14]) [mm],also measured
COC1=CC(=O)C[C@@H](C)[C@]12Oc1c(Cl)c(OC)cc(OC)c1C2=O [GRISEOFULVIN],30,27,20,24,12.5,6.25,12.5,6.25,12.5,6.25,12.5,6.25,,,,,,,,,
O=C(O)c1cn(C2CC2)c2cc(N3CCNCC3)c(F)cc2c1=O [CIPROFLOXACIN],,,,,,,,,,,,,22,32,6.5,,,,,,
CCCCCC[C@@H](O)C/C=C\CCCCCCCC(=O)N(C(=O)NC1CCCCC1)C1CCCCC1,18.3,14.9,,13.1,50,25,100,25,,,100,25,18.5,23.2,50,100,50,100,50,20.7,diameter of the inhibition zone (DIZ) (Klebsiella pneumoniae [15]): 17.5 mm; MBC (Streptococcus pyogenes [16]): 100 µg/mL; MIC (Streptococcus pyogenes [16]): 50 µg/mL; MBC (Klebsiella pneumoniae [17]): 100 µg/mL; MIC (Klebsiella pneumoniae [17]): 50 µg/mL; diameter of the inhibition zone (DIZ) (Streptococcus pyogenes [18]): 19.1 mm; MBC (Pseudomonas aeruginosa [11]): 100 µg/mL
CCCCCCCC/C=C\CCCCCCCC(=O)Nc1ccccc1O,15.3,11.7,9.2,8.9,50,50,100,25,100,50,100,50,11.1,15.2,100,100,100,100,100,13.2,diameter of the inhibition zone (DIZ) (Klebsiella pneumoniae [15]): 10.8 mm; MBC (Streptococcus pyogenes [16]): 100 µg/mL; MIC (Streptococcus pyogenes [16]): 50 µg/mL; diameter of the inhibition zone (DIZ) (Streptococcus pyogenes [18]): 11.4 mm; MBC (Pseudomonas aeruginosa [11]): 100 µg/mL
CCCCCCCCCCCCCCCC(=O)Nc1ccccc1O,13.7,11.6,9.3,9.8,100,50,100,50,100,50,100,25,9.8,11.5,100,100,50,100,100,11.8,diameter of the inhibition zone (DIZ) (Klebsiella pneumoniae [15]): 10.5 mm; MBC (Streptococcus pyogenes [16]): 100 µg/mL; MIC (Streptococcus pyogenes [16]): 50 µg/mL; MBC (Klebsiella pneumoniae [17]): 100 µg/mL; MIC (Klebsiella pneumoniae [17]): 50 µg/mL; diameter of the inhibition zone (DIZ) (Streptococcus pyogenes [18]): 10.6 mm; MBC (Pseudomonas aeruginosa [11]): 100 µg/mL
CCCCCCCCCCCCCCCC(=O)N(C(=O)NC1CCCCC1)C1CCCCC1,14.2,12.5,9.9,10.7,50,25,100,50,100,50,25,12.5,10.1,14.9,25,100,50,100,50,12.3,diameter of the inhibition zone (DIZ) (Klebsiella pneumoniae [15]): 10.7 mm; MBC (Streptococcus pyogenes [16]): 100 µg/mL; MIC (Streptococcus pyogenes [16]): 50 µg/mL; MBC (Klebsiella pneumoniae [17]): 100 µg/mL; MIC (Klebsiella pneumoniae [17]): 50 µg/mL; diameter of the inhibition zone (DIZ) (Streptococcus pyogenes [18]): 11.2 mm; MBC (Pseudomonas aeruginosa [11]): 100 µg/mL
